Measurements taken from patent publication US11407711B2, “Benzamide compound and use thereof” (METISA BIOTECHNOLOGY CO., LTD., priority 2018, dated 2022).
Like-named read-outs stand apart in the source and are kept apart here.

Legend:
Type in all cases: in vivo
armyworm = experiment: Insecticidal activity against armyworm (Airbrush spray on maize blade segments); conditions: 72 h, read-out: fatality rate against armyworm
Method: (§1) The compound to be tested was dissolved by a mixed solvent of acetone/methanol (1:1), and then diluted by water containing 0.1% (wt) Tween 80 to the required concentration.
(§2) An Airbrush spray method was adopted for the determination of the activity, with armyworm, Plutella xylostella and Chilo suppressalis as targets.
Determination method: maize blades were cut into 2 cm (length) segments; with the pressure of Airbrush spray being 10 psi (about 0.7 kg/cm^2), both sides of each blade segment were sprayed with the amount of 0.5 ml. After dried in the shade, each segment was inoculated with 10 3rd-instar larvaes, 3 repeats for each segment. And then, the treated segments were put into an observation room (25° C., relative humidity: 60-70%) for cultivation; the number of the survivals was surveyed 1 d, 2 d and 3 d after administration, and then the death rate was calculated.

Chilo suppressalis = experiment: Insecticidal activity against Chilo suppressalis (spray on rice seedlings, stems fed to larvae); conditions: for pest or weed control at 1 µg/mL / pest or weed control at 4 µg/mL / pest or weed control at 40 µg/mL: Chilo suppressalis, 72 h, read-out: fatality rate against Chilo suppressalis; for Fatality rate (%, 3 d after administration) 5 mg/L: Table 77, 5 mg/L
Method: as §1, §2
Determination method: 1) preparation of rice seedlings: rice was cultivated in small plastic cups (diameter: 4.5 cm and height: 4 cm) at a constant temperature room (temperature: 26-28° C., relative humidity: 60-80% around and illumination: 16 hL:8 hD), after the rice grew to a 4-5 leaf stage, vigorous and uniform-growth rice seedlings were selected and treated with an insecticide, 3 repeats for each treatment. 2) Preparation of pests for test: 3rd-instar larvaes of Chilo suppressalis fed continuously in the room. 3) Inoculation of pests on rice stems by spray. The whole plants of the rice seedlings were sprayed by a spray method uniformly, with the dose of 15 ml for each treatment. The blank control was treated first, and the above operation was repeated in an order of lower to higher test concentration. After sprayed, rice seedlings were placed in the shade to dry the insecticide liquor, and then stalks about 5 cm above the basal part of the stems were cut to be fed to the pests for test. Glass petri dishes (diameter: […]) were prepared, cushioned by filter paper at the bottom thereof, and subjected to water addition for moisturizing; about 20 pieces of rice stems were put in each dish and inoculated with 10 larvaes; then the petri dishes were closed by non-woven fabrics and placed in a constant temperature room for culture. The number of survivals was surveyed 3 d after administration.

Plutella xylostella = experiment: Insecticidal activity against Plutella xylostella (Airbrush spray on cabbage leaf discs); conditions: for pest or weed control at 0.5 µg/mL / pest or weed control at 1 µg/mL / pest or weed control at 10 µg/mL / pest or weed control at 0.05 µg/mL: Plutella xylostella, foliar, 72 h; for pest or weed control at 0.05 µg/mL: read-out: fatality rate against Plutella xylostella, 0.05 mg/L, 3 d after administration; for Fatality rate (%, 3 d after administration) 0.05 mg/L: Table 74, 0.05 mg/L
Method: as §1, §2
Determination method: cabbage blades were punched into 2 cm (diameter) leaf discs by a puncher; with the pressure of Airbrush spray being 10 psi (about 0.7 kg/cm^2), both sides of each leaf disc were sprayed with the amount of 0.5 ml. After dried in the shade, each leaf disc was inoculated with 10 3rd-instar larvaes, 3 repeats for each leaf disc. And then, the treated leaf discs were put into an observation room (25° C., relative humidity: 60-70%) for cultivation; the number of the survivals was surveyed 1 d, 2 d and 3 d after administration, and then the death rate was calculated.

[1] = 0.05 mg/L, 3 d after administration, 3rd-instar larvae
[2] = 0.1 mg/L, 3 d after administration, 3rd-instar larvae
[3] = 0.5 mg/L, 3 d after administration, 3rd-instar larvae
[4] = 1 mg/L, survivals surveyed 3 d after administration
[5] = 4 mg/L, survivals surveyed 3 d after administration
[6] = 40 mg/L, survivals surveyed 3 d after administration
[7] = 0.5 mg/L, 3 d after administration, read-out: fatality rate against Plutella xylostella
[8] = 1 mg/L, 3 d after administration, read-out: fatality rate against Plutella xylostella
[9] = Table 71, 10 mg/L, 3 d after administration, read-out: Fatality rate (%, 3 d after administration) 10 mg/L
[10] = Table 73, 0.5 mg/L, 3 d after administration, read-out: Fatality rate (%, 3 d after administration) 0.5 mg/L
[11] = Table 73, 1 mg/L, 3 d after administration, read-out: Fatality rate (%, 3 d after administration) 1 mg/L
[12] = Table 77, 1.25 mg/L, 3 d after administration
[13] = Table 77, 2.5 mg/L, 3 d after administration
[14] = read-out: Fatality rate (%, 3 d after administration) 0.5 mg/L, Table 73, 0.5 mg/L, 3 d after administration
[15] = read-out: Fatality rate (%, 3 d after administration) 0.5 mg/L, Table 74, 0.5 mg/L, 3 d after administration
[16] = read-out: Fatality rate (%, 3 d after administration) 1 mg/L, Table 73, 1 mg/L, 3 d after administration
[17] = read-out: Fatality rate (%, 3 d after administration) 10 mg/L, Table 71, 10 mg/L, 3 d after administration
[18] = read-out: fatality rate against Plutella xylostella, 0.5 mg/L, 3 d after administration
[19] = read-out: fatality rate against Plutella xylostella, 1 mg/L, 3 d after administration
[20] = Table 75, fast-acting efficacy, dose 0.5 mg/L
[21] = Table 75, fast-acting efficacy, dose 0.5 mg/L, 3 d after administration
[22] = Table 76, fast-acting efficacy, dose 0.05 mg/L

Compound	pest or weed control at 0.05 µg/mL (armyworm; [1]) [%]	pest or weed control at 0.1 µg/mL (armyworm; [2]) [%]	pest or weed control at 0.5 µg/mL (armyworm; [3]) [%]	pest or weed control at 1 µg/mL (Chilo suppressalis; [4]) [%]	pest or weed control at 4 µg/mL (Chilo suppressalis; [5]) [%]	pest or weed control at 40 µg/mL (Chilo suppressalis; [6]) [%]	pest or weed control at 0.5 µg/mL (Plutella xylostella; [7]) [%]	pest or weed control at 1 µg/mL (Plutella xylostella; [8]) [%]	pest or weed control at 10 µg/mL (Plutella xylostella; [9]) [%]	pest or weed control at 0.5 µg/mL (Plutella xylostella; [10]) [%]	pest or weed control at 1 µg/mL (Plutella xylostella; [11]) [%]	pest or weed control at 0.1 µg/mL (armyworm) [%]	pest or weed control at 0.5 µg/mL (armyworm) [%]	pest or weed control at 4 µg/mL (Chilo suppressalis) [%]	pest or weed control at 40 µg/mL (Chilo suppressalis) [%]	pest or weed control at 0.5 µg/mL (Plutella xylostella; [14]) [%]	pest or weed control at 1 µg/mL (Plutella xylostella; [16]) [%]	pest or weed control at 10 µg/mL (Plutella xylostella; [17]) [%]	pest or weed control at 0.5 µg/mL (Plutella xylostella; [18]) [%]	pest or weed control at 1 µg/mL (Plutella xylostella; [19]) [%]	other results
N#CCN(C(=O)c1ccc(C#N)cc1)c1cccc(C(=O)Nc2c(Br)cc(C(F)(C(F)(F)F)C(F)(F)F)cc2Br)c1F [Compound 2.17]	≥ 90	≥ 90	≥ 90	≥ 90	≥ 90	≥ 90	≥ 90	≥ 90	100	100	100	–	–	–	–	–	–	–	–	–	–
CN(C(=O)c1ccccc1)c1cccc(C(=O)N(CC#N)c2c(Br)cc(C(F)(C(F)(F)F)C(F)(F)F)cc2Br)c1F [Compound 30.321]	–	–	–	–	–	–	–	–	–	–	–	≥ 90	≥ 90	≥ 90	≥ 90	100	100	100	≥ 90	≥ 90	pest or weed control at 0.05 µg/mL (armyworm): ≥ 90%; pest or weed control at 1 µg/mL (Chilo suppressalis): ≥ 90%; Fatality rate (%, 3 d after administration) 1.25 mg/L (Chilo suppressalis; [12]): 93.5%; Fatality rate (%, 3 d after administration) 2.5 mg/L (Chilo suppressalis; [13]): 100%; Fatality rate (%, 3 d after administration) 5 mg/L (Chilo suppressalis; 3 d after administration): 100%; pest or weed control at 0.5 µg/mL (Plutella xylostella; [15]): 100%; pest or weed control at 0.05 µg/mL (Plutella xylostella): ≥ 90%; Fatality rate (%, 3 d after administration) 0.05 mg/L (Plutella xylostella; 3 d after administration): 100%; Fatality rate (%) 1 d after administration (Plutella xylostella; [20]): 90%; Fatality rate (%) 2 d after administration (Plutella xylostella; [20]): 100%; Fatality rate (%) 3 d after administration (Plutella xylostella; [21]): 100%
N#CCN(C(=O)c1cccc(NC(=O)c2ccccc2)c1F)c1c(Cl)cc(C(F)(C(F)(F)F)C(F)(F)F)cc1Br [Compound 21.321]	–	≥ 90	≥ 90	–	≥ 90	≥ 90	–	≥ 90	100	–	–	–	–	–	–	–	–	–	–	–	–
N#CCN(C(=O)c1ccccc1)c1cccc(C(=O)Nc2c(Br)cc(C(F)(C(F)(F)F)C(F)(F)F)cc2Br)c1F [Compound 2.321]	–	–	–	–	–	–	–	–	–	–	–	≥ 90	≥ 90	≥ 90	≥ 90	100	100	100	≥ 90	≥ 90	pest or weed control at 0.05 µg/mL (armyworm): ≥ 90%; pest or weed control at 1 µg/mL (Chilo suppressalis): ≥ 90%; Fatality rate (%, 3 d after administration) 1.25 mg/L (Chilo suppressalis; [12]): 95.5%; Fatality rate (%, 3 d after administration) 2.5 mg/L (Chilo suppressalis; [13]): 100%; Fatality rate (%, 3 d after administration) 5 mg/L (Chilo suppressalis; 3 d after administration): 100%; Fatality rate (%) 1 d after administration (Plutella xylostella; [20]): 80%; Fatality rate (%) 2 d after administration (Plutella xylostella; [20]): 95%; Fatality rate (%) 3 d after administration (Plutella xylostella; [21]): 100%
N#CCN(C(=O)c1ccc(F)cc1)c1cccc(C(=O)Nc2c(Br)cc(C(F)(C(F)(F)F)C(F)(F)F)cc2Br)c1F [Compound 2.7]	≥ 90	≥ 90	≥ 90	≥ 90	≥ 90	≥ 90	≥ 90	≥ 90	100	100	100	–	–	–	–	–	–	–	–	–	–
N#CCN(C(=O)c1cccc(NC(=O)c2ccccc2)c1F)c1c(Br)cc(C(F)(C(F)(F)F)C(F)(F)F)cc1Br [Compound 16.321]	–	–	–	–	–	–	–	–	–	–	–	≥ 90	≥ 90	≥ 90	≥ 90	100	100	100	≥ 90	≥ 90	–
N#CCN(C(=O)c1ccccc1)c1cccc(C(=O)Nc2c(Cl)cc(C(F)(C(F)(F)F)C(F)(F)F)cc2Cl)c1F [Compound 3.321]	–	–	–	–	–	–	–	–	–	–	–	≥ 90	≥ 90	≥ 90	≥ 90	–	–	100	–	≥ 90	–
N#CCN(C(=O)c1ccccc1)c1cccc(C(=O)N(CC#N)c2c(Br)cc(C(F)(C(F)(F)F)C(F)(F)F)cc2Br)c1F [Compound 58.321]	–	–	–	–	–	–	–	–	–	–	–	≥ 90	≥ 90	≥ 90	≥ 90	98	100	100	≥ 90	≥ 90	–
N#CCN(C(=O)c1ccc(C(F)(F)F)cc1)c1cccc(C(=O)Nc2c(Br)cc(C(F)(C(F)(F)F)C(F)(F)F)cc2Br)c1F [Compound 2.43]	≥ 90	≥ 90	≥ 90	≥ 90	≥ 90	≥ 90	≥ 90	≥ 90	100	100	100	–	–	–	–	–	–	–	–	–	–
N#CCN(C(=O)c1ccccc1)c1cccc(C(=O)Nc2c(Br)cc(C(F)(C(F)(F)F)C(F)(F)F)cc2C(F)(F)F)c1F [Compound 9.321]	–	–	–	–	–	–	–	–	–	–	–	≥ 90	≥ 90	≥ 90	≥ 90	–	–	100	≥ 90	≥ 90	pest or weed control at 0.05 µg/mL (armyworm): ≥ 90%; pest or weed control at 1 µg/mL (Chilo suppressalis): ≥ 90%; Fatality rate (%, 3 d after administration) 0.625 mg/L (Chilo suppressalis; Table 78, 0.625 mg/L, 3 d after administration): 98%; Fatality rate (%, 3 d after administration) 1.25 mg/L (Chilo suppressalis; Table 78, 1.25 mg/L, 3 d after administration): 100%; Fatality rate (%, 3 d after administration) 2.5 mg/L (Chilo suppressalis; Table 78, 2.5 mg/L, 3 d after administration): 100%; pest or weed control at 0.5 µg/mL (Plutella xylostella; [15]): 100%; pest or weed control at 0.05 µg/mL (Plutella xylostella): ≥ 90%; Fatality rate (%, 3 d after administration) 0.05 mg/L (Plutella xylostella; 3 d after administration): 100%; Fatality rate (%) 1 d after administration (Plutella xylostella; [22]): 70%; Fatality rate (%) 2 d after administration (Plutella xylostella; [22]): 95%; Fatality rate (%) 3 d after administration (Plutella xylostella; Table 76, fast-acting efficacy, dose 0.05 mg/L, 3 d after administration): 100%
